Data taken from US11254688B2 (Boehringer Ingelheim International GmbH, priority 2018, dated 2022).
pIC50: −log10 of the molar value. Counter-ions that a name gives are not always drawn.

Target: T1, hGOAT (Homo sapiens, UniProt Q96T53)
T1 construct: expressed in transfected cells; host or cells: HEK293 (Hek293 hGOAT/PPGhrl Clone #1B8)
T1 sequence (Q96T53 1-435): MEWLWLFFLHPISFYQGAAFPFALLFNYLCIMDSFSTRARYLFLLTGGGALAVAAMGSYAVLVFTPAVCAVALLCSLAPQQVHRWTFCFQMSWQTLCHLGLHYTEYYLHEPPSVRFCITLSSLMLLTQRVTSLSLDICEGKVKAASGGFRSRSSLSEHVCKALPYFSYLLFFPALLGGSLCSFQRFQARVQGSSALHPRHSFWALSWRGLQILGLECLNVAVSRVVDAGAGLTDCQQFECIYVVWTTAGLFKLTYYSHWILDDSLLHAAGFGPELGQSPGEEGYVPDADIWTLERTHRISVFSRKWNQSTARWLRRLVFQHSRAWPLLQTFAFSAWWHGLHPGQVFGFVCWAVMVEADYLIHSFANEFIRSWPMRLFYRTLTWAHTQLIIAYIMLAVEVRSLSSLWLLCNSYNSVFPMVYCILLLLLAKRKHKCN
Test: Determination of hGOAT activity in HEK293 cells after incubation with test compound (acyl-ghrelin ELISA)
Type: cell-based
Conditions: HEK293 cells stably transfected with preproghrelin and human GOAT; octanoate-BSA 100 μM; 5 hours incubation; acyl-ghrelin in medium by ELISA; 8 compound concentrations

| SMILES | pIC50 |
| --- | --- |
| Cc1nc2nonc2c(N)c1Cc1ccc(C#N)c(OCC2(C(F)(F)F)CC2)c1 [Compound 21.7, 4-({7-Amino-5-methyl-[1,2,5]oxadiazolo[3,4-b]pyridin-6-yl}methyl)-2-{[1-(trifluoromethyl)cyclopropyl]methoxy}benzonitrile] | 9.56 |
| Cc1nc2nonc2c(N)c1Cc1ccc(C#N)c(OC2CCN(C)C2)c1 (stereo not drawn) [Compound 21.8, 4-(7-Amino-5-methyl-[1,2,5]oxadiazolo[3,4-b]pyridin-6-ylmethyl)-2-(1-methyl-pyrrolidin-3-yloxy)-benzonitrile] | 8.96 |
| Cc1nc2nonc2c(N)c1Cc1ccc(C#N)c(O[C@H]2CCC(=O)NC2)c1 [Compound 21.9, 4-({7-Amino-5-methyl-[1,2,5]oxadiazolo[3,4-b]pyridin-6-yl}methyl)-2-{[(3S)-6-oxopiperidin-3-yl]oxy}benzonitrile] | 7.77 |
| Cc1nc2nonc2c(N)c1Cc1ccc(OC2CCOC2)nc1 (stereo not drawn) [Compound 21.10, 5-Methyl-6-{[6-(oxolan-3-yloxy)pyridin-3-yl]methyl}-[1,2,5]oxadiazolo[3,4-b]pyridin-7-amine] | 8.59 |
| Cc1nc2nonc2c(N)c1Cc1ccc(OCC2(C)COC2)nc1 [Compound 21.11, 5-Methyl-6-({6-[(3-methyloxetan-3-yl)methoxy]pyridin-3-yl}methyl)-[1,2,5]oxadiazolo[3,4-b]pyridin-7-amine] | 8.72 |
| Cc1nc2nonc2c(N)c1Cc1ccc(OC2CCOCC2)nc1 [Compound 21.12, 5-Methyl-6-[6-(tetrahydro-pyran-4-yloxy)-pyridin-3-ylmethyl]-[1,2,5]oxadiazolo[3,4-b]pyridin-7-ylamine] | 9.01 |
| Cc1nc2nonc2c(N)c1Cc1ccc(Cl)cc1 [Compound 22.1, 6-[(4-Chlorophenyl)methyl]-5-methyl-[1,2,5]oxadiazolo[3,4-b]pyridin-7-amine] | 9.36 |
| Cc1nc2nonc2c(N)c1C(=O)c1ccc(OC(F)(F)F)cc1 [Compound 22.2, 5-Methyl-6-[4-(trifluoromethoxy)benzoyl]-[1,2,5]oxadiazolo[3,4-b]pyridin-7-amine] | 8.60 |
| Nc1c(Cc2ccc(Br)cc2)c(Cl)nc2nonc12 [Compound 23.1, 6-[(4-Bromophenyl)methyl]-5-chloro-[1,2,5]oxadiazolo[3,4-b]pyridin-7-amine] | 9.31 |
| Nc1c(Cc2ccc(C(F)(F)F)cc2)c(Cl)nc2nonc12 [Compound 23.2, 5-Chloro-6-{[4-(trifluoromethyl)phenyl]methyl}-[1,2,5]oxadiazolo[3,4-b]pyridin-7-amine] | 9.63 |
| Nc1c(Cc2ccc(OC(F)(F)F)cc2)c(Cl)nc2nonc12 [Compound 23.3, 5-Chloro-6-{[4-(trifluoromethoxy)phenyl]methyl}-[1,2,5]oxadiazolo[3,4-b]pyridin-7-amine] | 9.53 |

Other lines, results leading:

| pIC50 | SMILES |
| --- | --- |
| 9.86 | COc1cc(Cc2c(Cl)nc3nonc3c2N)ccc1C(F)(F)F [Compound 23.4, 5-Chloro-6-{[3-methoxy-4-(trifluoromethyl)phenyl]methyl}-[1,2,5]oxadiazolo[3,4-b]pyridin-7-amine] |
| 9.13 | Nc1c(Cc2ccc(F)cc2)c(Cl)nc2nonc12 [Compound 23.5, 5-Chloro-6-[(4-fluorophenyl)methyl]-[1,2,5]oxadiazolo[3,4-b]pyridin-7-amine] |
| 10.11 | COc1cc(Cc2c(Cl)nc3nonc3c2N)ccc1Br [Compound 23.6, 6-[(4-Bromo-3-methoxyphenyl)methyl]-5-chloro-[1,2,5]oxadiazolo[3,4-b]pyridin-7-amine] |
| 9.75 | COc1cc(Cc2c(Cl)nc3nonc3c2N)ccc1C#N [Compound 23.7, 4-({7-Amino-5-chloro-[1,2,5]oxadiazolo[3,4-b]pyridin-6-yl}methyl)-2-methoxybenzonitrile] |
| 9.32 | Nc1c(Cc2ccc(C(F)(F)F)cc2)c(Br)nc2nonc12 [Compound 24.1, 5-Bromo-6-{[4-(trifluoromethyl)phenyl]methyl}-[1,2,5]oxadiazolo[3,4-b]pyridin-7-amine] |
| 8.24 | Nc1c(Cc2ccc(C(F)(F)F)cc2)c(CO)nc2nonc12 [Compound 24.2, (7-Amino-6-{[4-(trifluoromethyl)phenyl]methyl}-[1,2,5]oxadiazolo[3,4-b]pyridin-5-yl)methanol] |
| 8.21 | CN(C)c1nc2nonc2c(N)c1Cc1ccc(C(F)(F)F)cc1 [Compound 24.3, N5,N5-Dimethyl-6-{[4-(trifluoromethyl)phenyl]methyl}-[1,2,5]oxadiazolo[3,4-b]pyridine-5,7-diamine Trifluoroacetic Acid Salt] |
| 8.62 | N#Cc1nc2nonc2c(N)c1Cc1ccc(C(F)(F)F)cc1 [Compound 24.4, 7-Amino-6-{[4-(trifluoromethyl)phenyl]methyl}-[1,2,5]oxadiazolo[3,4-b]pyridine-5-carbonitrile] |
| 9.54 | Nc1c(Cc2ccc(C(F)(F)F)cc2)c(C(F)F)nc2nonc12 [Compound 24.5, 5-(Difluoromethyl)-6-{[4-(trifluoromethyl)phenyl]methyl}-[1,2,5]oxadiazolo[3,4-b]pyridin-7-amine] |
| 8.46 | Cc1nc2nonc2c(N)c1Cc1ccc(Cl)nc1C(F)F [Compound 25.1, 6-{[6-Chloro-2-(difluoromethyl)pyridin-3-yl]methyl}-5-methyl-[1,2,5]oxadiazolo[3,4-b]pyridin-7-amine] |
| 8.32 | Cc1nc2nonc2c(N)c1Cc1cnc(Cl)cc1C(F)F [Compound 25.2, 6-{[6-Chloro-4-(difluoromethyl)pyridin-3-yl]methyl}-5-methyl-[1,2,5]oxadiazolo[3,4-b]pyridin-7-amine] |
| 8.13 | Cc1nc2nonc2c(N)c1Cc1ccc(Cl)nc1C(F)(F)F [Compound 25.3, 6-{[6-Chloro-2-(trifluoromethyl)pyridin-3-yl]methyl}-5-methyl-[1,2,5]oxadiazolo[3,4-b]pyridin-7-amine] |
| 8.87 | Cc1nc2nonc2c(N)c1Cc1cnc(Cl)c(C(F)(F)F)c1 [Compound 25.4, 6-{[6-chloro-5-(trifluoromethyl)pyridin-3-yl]methyl}-5-methyl-[1,2,5]oxadiazolo[3,4-b]pyridin-7-amine] |
